From patent US10300058B2, “Tyrosine kinase inhibitor and uses thereof” (Xuanzhu Pharma Co., Ltd., priority 2014, dated 2019)
Where two headings read alike, the source gives them in different places. Values belong to the molecule of their own block, whether it stands above or below them.

How the values were obtained:
EGFR T790M = EGFR T790M (Homo sapiens (Human), UniProt P00533, T790M); assay: Mobility Shift Assay, in vitro enzyme-inhibiting activity, EGFR T790M; format: biochemical; conditions: for IC50: Km ATP; for Selectivity (WT/T790M): ratio of IC50
Chain of EGFR T790M (P00533 25-1210 T790M): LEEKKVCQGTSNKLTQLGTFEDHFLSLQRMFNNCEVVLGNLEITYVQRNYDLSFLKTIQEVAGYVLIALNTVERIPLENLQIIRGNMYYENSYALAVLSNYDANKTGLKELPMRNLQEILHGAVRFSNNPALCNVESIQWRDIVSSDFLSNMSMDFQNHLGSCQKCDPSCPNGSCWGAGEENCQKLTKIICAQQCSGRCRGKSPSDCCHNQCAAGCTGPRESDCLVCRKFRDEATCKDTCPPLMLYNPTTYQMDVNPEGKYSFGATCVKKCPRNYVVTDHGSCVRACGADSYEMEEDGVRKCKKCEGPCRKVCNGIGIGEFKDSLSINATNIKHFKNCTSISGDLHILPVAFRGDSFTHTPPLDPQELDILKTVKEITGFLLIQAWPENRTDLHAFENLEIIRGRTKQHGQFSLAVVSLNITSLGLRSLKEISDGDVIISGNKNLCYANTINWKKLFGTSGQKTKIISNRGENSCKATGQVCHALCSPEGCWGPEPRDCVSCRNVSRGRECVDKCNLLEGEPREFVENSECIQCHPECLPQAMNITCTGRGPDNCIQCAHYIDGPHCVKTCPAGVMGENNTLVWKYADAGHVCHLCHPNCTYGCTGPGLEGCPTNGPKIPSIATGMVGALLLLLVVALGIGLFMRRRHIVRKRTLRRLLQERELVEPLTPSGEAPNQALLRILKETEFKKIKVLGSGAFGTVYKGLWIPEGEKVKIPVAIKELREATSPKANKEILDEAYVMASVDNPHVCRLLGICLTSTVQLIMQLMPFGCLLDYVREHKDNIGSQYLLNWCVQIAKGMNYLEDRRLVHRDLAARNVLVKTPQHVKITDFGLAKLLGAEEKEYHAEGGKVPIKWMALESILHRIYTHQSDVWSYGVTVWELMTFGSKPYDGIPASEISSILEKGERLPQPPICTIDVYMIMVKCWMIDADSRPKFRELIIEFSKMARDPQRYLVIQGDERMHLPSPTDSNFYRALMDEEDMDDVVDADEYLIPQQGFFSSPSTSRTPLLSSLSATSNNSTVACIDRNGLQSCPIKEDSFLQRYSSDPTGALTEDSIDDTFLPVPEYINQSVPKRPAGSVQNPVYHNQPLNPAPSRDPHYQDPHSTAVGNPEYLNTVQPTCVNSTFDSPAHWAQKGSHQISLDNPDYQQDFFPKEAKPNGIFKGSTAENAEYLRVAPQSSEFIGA
Procedure: (§1) 1. Preparation of Reagents
(§2) 2. Preparation of a Compound Solution
(§3) (1) To the second well of a 96-well plate, 5 μL 10 mM compound (dissolved in DMSO) was added, and 95 μL 100% DMSO was added to prepare 100 μL 0.5 mM compound.
(§4) (2) To other wells, 60 μL 100% DMSO was added. 20 μL compound from the second well was added to the third well, and 4-fold dilution was further performed to get 10 diluted concentrations.
(§5) (3) To the first well and the twelfth well of the 96-well plate, 100 μL 100% DMSO was separately added, and the two wells were used as control wells.
(§6) (4) 10 μL from each well of the 96-well plate was added to another 96-well plate, and 90 μL 1-fold kinase buffer was added.
(§7) (5) 5 μL from the 96-well plate was added to another 384-well plate, for example, transferred from A1 well of the 96-well plate to A1 and A2 wells of the 384-well plate, and transferred from A2 well of the 96-well plate to A3 and A4 wells of the 384-well plate, and so on.
(§8) To 384-well plate, 10 μL 2.5-fold enzyme solution was added, and incubated at room temperature for 10 min.
(§9) (5) Kinase reaction and stop
(§10) After incubation at 28° C. for a period of time (depending on kinase), 25 μL stop solution was added.
(§11) 4. Data on percent conversion was read by Caliper.
(§12) (1) Data on enzyme activity was obtained by Caliper program;
(§13) (2) Inhibition rate of enzyme activity was calculated from the data on enzyme activity by the following formula: Inhibition rate(%)=(maximal value−the measured value of a test compound)/(maximal value-minimal value)×100,
(§14) wherein, the maximal value represents the measured value of DMSO control; and the minimal value represents the measured value of blank control.
(§15) (3) Calculation of IC50 value by XLFit excel.

[1] = tested on: H1975 cell (EGFR-T790M/L858R double mutation); assay: In vitro cytologic activity, Celltiter-Glo, H1975 cells; format: cell-based, human; conditions: for IC50: Homo sapiens, NCI-H1975, 72 h, 72 h, Celltiter-Glo; for Selectivity (A431/H1975): ratio of IC50
Procedure: (§16) 1.1 Preparation of Cell Suspension
(§17) Culture medium was removed from culture bottle;
(§18) PBS was added to wash the cells; • pancreatin was added for digestion, and the cells were collected by centrifugation; • the cells were resuspended in a culture medium containing 10% fetal bovine serum, counted and adjusted to a concentration of 2×10^4/mL or 3×10^4/mL (cell viability must be greater than 90%); • the cell suspension was added to a 96-well plate, at 100 μL for each well, i.e., 2000/well for H1975 cell; 3000/well for A431 cell; and • the cells were cultured at 37° C. in 5% CO2 incubator overnight.
(§19) Dilution of a compound in DMSO (or water for injection) • (1) The compound was 5-fold diluted with DMSO from 10 mM to 2 mM, and then 4-fold diluted from 2 mM, to get 10 concentrations; • High control (HC, control without compound inhibition): 0.5% DMSO; • Low control (LC, control with compound inhibition): 1000 nM.
(§20) i. To each well, 99 μL growth medium containing 10% FBS was added, and then 1 μL diluted compound was added, the total volume of the well was […], and the final concentration of the compound was measured.
(§21) The test plate was left at room temperature, and equilibrated for 30 min. 80 μL culture medium was discarded. 60 μL CTG reagent (Celltiter-Glo kit) was added, and shaked for 2 min in a fast shaker, and was placed at room temperature for 10 min. The values were read by Envision instrument.

[2] = tested on: H1975 human non-small cell lung cancer xenograft; assay: Pharmacodynamics in vivo, H1975 xenograft tumor-bearing nude mice; parameters: species or system BALB/c nude mouse; conditions: PO; for RTV (relative tumor volume) / TV (tumor volume) / Body weight After administration / Body weight Before administration: mean ± standard error
Source text: Genus: Rodent, Line: BALB/c nude, age: 6-8 weeks, gender: female, body weight: 18-22 g. Provider of experimental animals: Beijing Ankaiyibo Biological Technology Co. Ltd., Production license No. SCXK(Jing) 2012-0009. Quality Certificate No. 11402400000256 […] The tumor cells in logarithmic growth phase were used in tumor inoculation in vivo. […] When the tumor grew into a volume of about 100 mm^3, the animals were grouped and administered, 8 mice per group. […] Test compound solutions were prepared immediately before administration every day. [table] Vernier caliper was used to measure the volume of tumor twice a week. The long diameter and short diameter of tumor were measured. The volume was calculated by the formula: volume=0.5×long diameter×short diameter^2. According to the measurement results, relative tumor volume (RTV) and relative tumor volume increasing rate (T/C) were calculated. RTV=Vt/V0, wherein Vt is the average value of tumor volume on day t after grouping and administration, V0 is the average value of tumor volume at the day when grouping. T/C=TRTV/CRTV×100%, wherein TRTV is the RTV in the treatment group, and CRTV is the RTV in the solvent control group. […] One-Way ANOVA test was carried out by SPSS17.0 statistic software. Tumor volume was analysed in statistics among groups. P<0.05 is indicative of significant difference.

EGFR (d746-750) = EGFR (d746-750) (Homo sapiens (Human), UniProt P00533, DEL746-750); assay: Mobility Shift Assay, in vitro enzyme-inhibiting activity, EGFR (d746-750); format: biochemical; conditions: for IC50: Km ATP; for Selectivity WT/d746-750: ratio of IC50
Chain of EGFR (d746-750) (P00533 other isoform, or with tags, fused parts or gaps del 1-668/del 746-750 limits assumed): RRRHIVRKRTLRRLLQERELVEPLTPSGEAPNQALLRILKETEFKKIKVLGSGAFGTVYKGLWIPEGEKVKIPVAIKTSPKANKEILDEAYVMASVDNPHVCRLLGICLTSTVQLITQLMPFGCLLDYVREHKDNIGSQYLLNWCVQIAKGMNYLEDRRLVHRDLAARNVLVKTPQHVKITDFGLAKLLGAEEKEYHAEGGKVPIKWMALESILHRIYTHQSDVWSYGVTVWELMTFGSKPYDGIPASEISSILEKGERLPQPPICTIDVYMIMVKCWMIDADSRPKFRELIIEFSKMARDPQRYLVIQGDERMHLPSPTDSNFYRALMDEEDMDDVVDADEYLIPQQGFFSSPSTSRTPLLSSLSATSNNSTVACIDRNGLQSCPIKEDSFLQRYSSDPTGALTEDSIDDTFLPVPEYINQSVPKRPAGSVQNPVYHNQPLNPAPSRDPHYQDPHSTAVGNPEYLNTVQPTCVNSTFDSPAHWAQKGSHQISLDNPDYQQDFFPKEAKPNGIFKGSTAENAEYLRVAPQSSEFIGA
Procedure: as §1, §2, §3, §4, §5, §6, §7, §8, §9, §10, §11, §12, §13, §14, §15

wild-type EGFR (WT EGFR) = wild-type EGFR (WT EGFR) (Homo sapiens (Human), UniProt P00533); assay: Mobility Shift Assay, in vitro enzyme-inhibiting activity, wild-type EGFR; format: biochemical; conditions: Km ATP
Chain of wild-type EGFR (WT EGFR) (P00533 25-1210): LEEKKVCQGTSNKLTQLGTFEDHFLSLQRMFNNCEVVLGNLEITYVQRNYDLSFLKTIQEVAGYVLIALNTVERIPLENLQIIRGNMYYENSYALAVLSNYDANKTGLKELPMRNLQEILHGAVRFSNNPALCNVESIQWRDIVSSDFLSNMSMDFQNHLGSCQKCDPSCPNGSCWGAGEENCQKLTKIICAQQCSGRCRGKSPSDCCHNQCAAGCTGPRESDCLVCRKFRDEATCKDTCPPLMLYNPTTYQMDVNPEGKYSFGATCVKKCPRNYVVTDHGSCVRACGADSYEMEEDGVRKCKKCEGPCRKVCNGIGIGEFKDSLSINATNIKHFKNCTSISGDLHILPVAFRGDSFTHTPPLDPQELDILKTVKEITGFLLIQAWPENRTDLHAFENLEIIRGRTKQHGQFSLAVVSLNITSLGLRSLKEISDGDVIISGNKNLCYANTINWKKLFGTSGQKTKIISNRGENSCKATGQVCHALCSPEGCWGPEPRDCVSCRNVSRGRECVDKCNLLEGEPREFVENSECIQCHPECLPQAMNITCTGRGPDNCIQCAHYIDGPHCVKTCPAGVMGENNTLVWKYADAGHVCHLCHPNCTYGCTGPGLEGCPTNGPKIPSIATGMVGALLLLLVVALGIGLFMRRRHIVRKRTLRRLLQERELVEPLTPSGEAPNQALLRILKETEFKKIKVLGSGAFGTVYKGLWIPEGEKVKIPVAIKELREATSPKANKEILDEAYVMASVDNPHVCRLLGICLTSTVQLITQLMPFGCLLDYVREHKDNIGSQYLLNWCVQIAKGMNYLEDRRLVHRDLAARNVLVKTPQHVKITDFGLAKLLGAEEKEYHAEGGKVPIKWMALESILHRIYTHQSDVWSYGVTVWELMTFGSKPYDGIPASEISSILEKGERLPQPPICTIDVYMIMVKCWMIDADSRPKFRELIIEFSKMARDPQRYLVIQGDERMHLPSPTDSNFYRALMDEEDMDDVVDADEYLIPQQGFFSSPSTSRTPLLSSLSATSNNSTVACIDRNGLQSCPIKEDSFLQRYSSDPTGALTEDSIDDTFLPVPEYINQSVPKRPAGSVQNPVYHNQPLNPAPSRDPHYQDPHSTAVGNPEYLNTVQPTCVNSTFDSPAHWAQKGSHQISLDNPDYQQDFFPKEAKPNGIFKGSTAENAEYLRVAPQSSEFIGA
Procedure: as §1, §2, §3, §4, §5, §6, §7, §8, §9, §10, §11, §12, §13, §14, §15

EGFR T790M-L858R = EGFR T790M-L858R (Homo sapiens (Human), UniProt P00533, L858R/T790M); assay: Mobility Shift Assay, in vitro enzyme-inhibiting activity, EGFR T790M-L858R; format: biochemical; conditions: for IC50: Km ATP; for Selectivity WT/T790M-L858R: ratio of IC50
Procedure: as §1, §2, §3, §4, §5, §6, §7, §8, §9, §10, §11, §12, §13, §14, §15

EGFR L858R = EGFR L858R (Homo sapiens (Human), UniProt P00533, L858R); assay: Mobility Shift Assay, in vitro enzyme-inhibiting activity, EGFR L858R; format: biochemical; conditions: for IC50: Km ATP; for Selectivity WT/L858R: ratio of IC50
Chain of EGFR L858R (P00533 25-1210 L858R): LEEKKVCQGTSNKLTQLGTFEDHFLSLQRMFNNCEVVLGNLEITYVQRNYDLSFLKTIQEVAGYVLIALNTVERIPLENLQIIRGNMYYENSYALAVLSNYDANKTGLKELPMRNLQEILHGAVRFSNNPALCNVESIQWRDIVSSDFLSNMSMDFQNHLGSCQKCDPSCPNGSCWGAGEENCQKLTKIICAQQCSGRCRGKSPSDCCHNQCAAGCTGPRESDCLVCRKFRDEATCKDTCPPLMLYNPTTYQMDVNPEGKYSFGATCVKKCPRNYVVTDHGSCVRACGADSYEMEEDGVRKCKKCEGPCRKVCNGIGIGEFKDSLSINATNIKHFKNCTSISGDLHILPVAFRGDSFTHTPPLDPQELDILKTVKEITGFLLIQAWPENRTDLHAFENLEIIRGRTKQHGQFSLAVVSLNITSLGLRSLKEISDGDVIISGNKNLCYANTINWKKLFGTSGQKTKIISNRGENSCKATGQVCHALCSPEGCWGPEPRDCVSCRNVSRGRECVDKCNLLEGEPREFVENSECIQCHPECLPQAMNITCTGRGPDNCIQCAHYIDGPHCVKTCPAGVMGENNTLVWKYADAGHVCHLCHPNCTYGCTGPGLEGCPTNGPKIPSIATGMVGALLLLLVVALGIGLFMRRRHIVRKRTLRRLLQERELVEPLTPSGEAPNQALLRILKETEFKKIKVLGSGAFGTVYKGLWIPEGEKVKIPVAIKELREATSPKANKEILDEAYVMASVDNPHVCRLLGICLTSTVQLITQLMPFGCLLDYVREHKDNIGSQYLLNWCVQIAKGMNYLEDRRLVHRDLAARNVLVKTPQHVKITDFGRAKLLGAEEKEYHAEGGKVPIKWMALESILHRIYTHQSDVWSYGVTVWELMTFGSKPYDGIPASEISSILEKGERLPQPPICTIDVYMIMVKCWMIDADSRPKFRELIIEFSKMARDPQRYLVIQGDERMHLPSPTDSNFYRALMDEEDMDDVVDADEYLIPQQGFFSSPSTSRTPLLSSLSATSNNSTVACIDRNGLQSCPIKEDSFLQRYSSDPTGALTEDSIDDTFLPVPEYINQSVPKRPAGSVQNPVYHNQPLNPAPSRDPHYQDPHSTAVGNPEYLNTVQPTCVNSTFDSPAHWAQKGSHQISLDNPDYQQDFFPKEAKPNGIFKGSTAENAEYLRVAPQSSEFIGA
Procedure: as §1, §2, §3, §4, §5, §6, §7, §8, §9, §10, §11, §12, §13, §14, §15

[3] = tested on: A431 cell (wild-type EGFR gene); assay: In vitro cytologic activity, Celltiter-Glo, A431 cells; format: cell-based; conditions: Homo sapiens, A-431, 72 h
Procedure: as §16, §17, §18, §19, §20, §21

EGFR (d746-750)-T790M = EGFR (d746-750)-T790M (Homo sapiens (Human), UniProt P00533, DEL746-750/T790M); assay: Mobility Shift Assay, in vitro enzyme-inhibiting activity, EGFR (d746-750)-T790M; format: biochemical; conditions: Table 8; Km ATP; read-out: IC50 EGFR (d746-750)-790M
Chain of EGFR (d746-750)-T790M (P00533 other isoform, or with tags, fused parts or gaps T790M/del 1-668/del 746-750 limits assumed): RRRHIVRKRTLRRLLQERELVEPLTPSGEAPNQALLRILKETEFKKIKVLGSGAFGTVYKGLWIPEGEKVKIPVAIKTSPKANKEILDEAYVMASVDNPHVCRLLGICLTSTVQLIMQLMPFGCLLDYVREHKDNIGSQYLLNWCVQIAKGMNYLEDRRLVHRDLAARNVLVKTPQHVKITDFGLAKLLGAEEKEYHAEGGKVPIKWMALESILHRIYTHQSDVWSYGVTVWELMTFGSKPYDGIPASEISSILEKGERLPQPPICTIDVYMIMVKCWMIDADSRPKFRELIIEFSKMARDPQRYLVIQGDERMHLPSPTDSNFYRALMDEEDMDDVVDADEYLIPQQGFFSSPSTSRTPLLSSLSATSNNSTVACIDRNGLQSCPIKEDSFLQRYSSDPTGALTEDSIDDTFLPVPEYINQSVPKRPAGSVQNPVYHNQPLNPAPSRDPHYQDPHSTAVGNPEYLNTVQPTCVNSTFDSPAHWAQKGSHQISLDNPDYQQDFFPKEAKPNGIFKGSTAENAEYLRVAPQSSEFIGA
Procedure: as §1, §2, §3, §4, §5, §6, §7, §8, §9, §10, §11, §12, §13, §14, §15

[4] = Table 18, 10 mg/kg, QD × 18, 23 days after inoculation
[5] = Table 18, 30 mg/kg, QD × 18, 23 days after inoculation
[6] = Table 8, read-out: IC50 EGFRT790M-L858R
[7] = Table 17, 100 mg/kg, 19 days after inoculation

IC50 (EGFR T790M; Table 1): 6.2 nM
Selectivity (WT/T790M) (EGFR T790M; Table 1): 89.0
IC50 ([1]; Table 9): 104 nM
IC50 (EGFR (d746-750); Table 5): 24.2 nM
Selectivity WT/d746-750 (EGFR (d746-750); Table 5): 14.2
IC50 (wild-type EGFR (WT EGFR); Table 1): 552 nM
IC50 (wild-type EGFR (WT EGFR); Table 5): 344 nM
IC50 (EGFR T790M-L858R; Table 5): 2.5 nM
Selectivity WT/T790M-L858R (EGFR T790M-L858R; Table 5): 140.2
IC50 (EGFR L858R; Table 5): 91.8 nM
Selectivity WT/L858R (EGFR L858R; Table 5): 3.7
IC50 ([3]; Table 9): 1850 nM
SMILES: C=CC(=O)Nc1cccc(Nc2nc(Nc3ccc(C4CCN(C(C)=O)CC4)cc3OC)ncc2C(F)(F)F)c1 [Compound 2, N-(3-((2-((4-(1-acetylpiperidin-4-yl)-2-methoxyphenyl)amino)-5-(trifluoromethyl)pyrimidin-4-yl)amino)phenyl)acrylamide]
Selectivity (A431/H1975) ([1]; Table 9): 17.7
T/C (relative tumor volume increasing rate) ([2]; Table 18, 10 mg/kg, QD × 18): 56.1%
TGI (tumor growth-inhibiting rate) ([2]; Table 18, 10 mg/kg, QD × 18): 43.9%
RTV (relative tumor volume) [2, 4]: 630 ± 105%
TV (tumor volume) [2, 4]: 588 ± 81 mm^3
Body weight After administration ([2]; Table 18, 10 mg/kg, QD × 18): 22.6 ± 0.3 g
Body weight Before administration ([2]; Table 18, 10 mg/kg, QD × 18): 21.1 ± 0.4 g
T/C (relative tumor volume increasing rate) ([2]; Table 18, 30 mg/kg, QD × 18): 45.7%
TGI (tumor growth-inhibiting rate) ([2]; Table 18, 30 mg/kg, QD × 18): 54.3%
RTV (relative tumor volume) [2, 5]: 513 ± 54%
TV (tumor volume) [2, 5]: 489 ± 49 mm^3
Body weight After administration ([2]; Table 18, 30 mg/kg, QD × 18): 22.6 ± 0.5 g
Body weight Before administration ([2]; Table 18, 30 mg/kg, QD × 18): 21.6 ± 0.4 g

IC50 (EGFR T790M; Table 4, unit inferred): 9.6 nM
Selectivity (WT/T790M) (EGFR T790M; Table 4): 90.7
IC50 ([1]; Table 10, unit inferred): 278 nM
IC50 (EGFR (d746-750); Table 8): 36 nM
IC50 (EGFR (d746-750)-T790M): 3.6 nM
IC50 (wild-type EGFR (WT EGFR); Table 4, unit inferred): 871 nM
IC50 (EGFR T790M-L858R; [6]): 9.8 nM
IC50 (EGFR L858R; Table 8): 88 nM
IC50 ([3]; Table 10, unit inferred): 2790 nM
SMILES: C=CC(=O)Nc1cccc(Nc2nc(Nc3ccc(C4CCN(S(C)(=O)=O)CC4)cc3OC)ncc2C(F)(F)F)c1 [Compound 27, N-(3-((2-((2-methoxy-4-(1-(methylsulfonyl)piperidin-4-yl)phenyl)amino)-5-(trifluoromethyl)pyrimidin-4-yl)amino)phenyl)acrylamide]
Selectivity (A431/H1975) ([1]; Table 10): 10.0

IC50 (EGFR T790M; Table 4, unit inferred): 1.2 nM
Selectivity (WT/T790M) (EGFR T790M; Table 4): 60.8
IC50 ([1]; Table 10, unit inferred): 75.2 nM
IC50 (EGFR (d746-750); Table 8): 5.5 nM
IC50 (EGFR (d746-750)-T790M): 0.8 nM
IC50 (wild-type EGFR (WT EGFR); Table 4, unit inferred): 73 nM
IC50 (EGFR T790M-L858R; [6]): 1.5 nM
IC50 (EGFR L858R; Table 8): 11 nM
IC50 ([3]; Table 10, unit inferred): 703 nM
SMILES: C=CC(=O)Nc1cccc(Nc2nc(Nc3ccc(N4CCC(N5CCOCC5)CC4)cc3OC)ncc2C(F)(F)F)c1 [Compound 28, N-(3-((2-((2-methoxy-4-(4-morpholinopiperidin-1-yl)phenyl)amino)-5-(trifluoromethyl)pyrimidin-4-yl)amino)phenyl)acrylamide]
Selectivity (A431/H1975) ([1]; Table 10): 9.4
T/C (relative tumor volume increasing rate) ([2]; Table 17, 100 mg/kg): 4.7%
TGI (tumor growth-inhibiting rate) ([2]; Table 17, 100 mg/kg): 95.3%
RTV (relative tumor volume) [2, 7]: 46 ± 6%
TV (tumor volume) [2, 7]: 53 ± 7 mm^3
Body weight After administration ([2]; Table 17, 100 mg/kg): 21.5 ± 0.3 g
Body weight Before administration ([2]; Table 17, 100 mg/kg): 20.8 ± 0.4 g

IC50 (EGFR T790M; Table 7): 3.55 nM
Selectivity (WT/T790M) (EGFR T790M; Table 7): 59.2
IC50 ([1]; Table 10, unit inferred): 278 nM
IC50 (EGFR (d746-750); Table 7): 28.6 nM
Selectivity WT/d746-750 (EGFR (d746-750); Table 7): 7.4
IC50 (wild-type EGFR (WT EGFR); Table 7): 210 nM
IC50 (EGFR T790M-L858R; Table 7): 4.73 nM
Selectivity WT/T790M-L858R (EGFR T790M-L858R; Table 7): 44.4
IC50 (EGFR L858R; Table 7): 39.3 nM
Selectivity WT/L858R (EGFR L858R; Table 7): 5.4
IC50 ([3]; Table 10, unit inferred): 2720 nM
SMILES: C=CC(=O)Nc1cccc(Nc2nc(Nc3ccc(N4CC5(CN(C(C)=O)C5)C4)cc3OC)ncc2C(F)(F)F)c1 [Compound 31, N-(3-((2-((4-(6-acetyl-2,6-diazaspiro[3.3]heptan-2-yl)-2-methoxyphenyl)amino)-5-(trifluoromethyl)pyrimidin-4-yl)amino)phenyl)acrylamide]
Selectivity (A431/H1975) ([1]; Table 10): 9.8
